Assays:
[1] = 100 kPa, Liquid, Capillary tube (Ostwald / Ubbelohde) method
[2] = mn = molality of the nth substance listed, in mol/kg; conditions: 100 kPa, Liquid, Capillary tube (Ostwald / Ubbelohde) method
[3] = cn = amount concentration of the nth substance listed, in mol/dm3; conditions: 100 kPa, Liquid, Capillary tube (Ostwald / Ubbelohde) method

O [water]
[1]
Conditions	viscosity [mPa·s]
288.15 K	1.138
298.15 K	0.89
308.15 K	0.719
318.15 K	0.596

OC[C@H]1O[C@@](CO)(O[C@H]2O[C@H](CO)[C@@H](O)[C@H](O)[C@H]2O)[C@@H](O[C@H]2O[C@H](CO)[C@@H](O)[C@H](O)[C@H]2O)[C@@H]1O + O
viscosity [mPa·s], [2]
Conditions	m1 = 0.06211	m1 = 0.07242	m1 = 0.08043	m1 = 0.09028	m1 = 0.1045	m1 = 0.1256	m1 = 0.1344	m1 = 0.1457
288.15 K	1.237	1.253	1.266	1.281	1.303	1.335	1.348	1.365
298.15 K	0.965	0.977	0.987	0.998	1.015	1.039	1.049	1.061
308.15 K	0.777	0.786	0.793	0.802	0.815	0.833	0.841	0.851
318.15 K	0.642	0.65	0.655	0.663	0.673	0.687	0.694	0.701

OC[C@H]1O[C@H](OC[C@H]2O[C@H](O[C@]3(CO)O[C@H](CO)[C@@H](O)[C@@H]3O)[C@H](O)[C@@H](O)[C@@H]2O)[C@H](O)[C@@H](O)[C@H]1O [D-raffinose] + O
viscosity [mPa·s], [2]
Conditions	m1 = 0.0515	m1 = 0.06262	m1 = 0.08002	m1 = 0.09691	m1 = 0.1085	m1 = 0.1133	m1 = 0.1273	m1 = 0.1387
288.15 K	1.227	1.246	1.275	1.303	1.322	1.33	1.353	1.371
298.15 K	0.957	0.971	0.993	1.014	1.028	1.034	1.051	1.065
308.15 K	0.771	0.782	0.799	0.816	0.827	0.831	0.845	0.855
318.15 K	0.637	0.646	0.659	0.672	0.681	0.684	0.695	0.703

O=C(CO)[C@@H](O)[C@H](O)[C@H](O)CO [D-fructose] + O
viscosity [mPa·s], [3]
Conditions	c1 = 0.0628	c1 = 0.06594	c1 = 0.08345	c1 = 0.1124	c1 = 0.1285	c1 = 0.1523
288.15 K	1.174	1.175	1.185	1.201	1.209	1.222
298.15 K	0.916	0.917	0.924	0.935	0.941	0.951
308.15 K	0.739	0.74	0.745	0.754	0.759	0.766
318.15 K	0.61	0.611	0.614	0.621	0.624	0.629

O=P([O-])([O-])[O-].[K+].[K+].[K+] [tripotassium phosphate] + O
viscosity [mPa·s], [2]
Conditions	288.15 K	298.15 K	308.15 K	318.15 K
m1 = 0.5	1.414	1.133	0.915	0.708
m1 = 1	1.7	1.349	1.09	0.838
m1 = 1.5	2.004	1.598	1.281	1.003
m1 = 2	2.299	1.806	1.441	1.116

Source: the NIST ThermoML archive (doi:10.1021/acs.jced.5b00845)
